Each structure is given as a SMILES string.

Assay [1] has as its system human lung carcinoma A549 cells. In words: MTT based cell proliferation assay, A549. Conditions: for IC50 / inhibition at 10 µg/mL: Homo sapiens, A549, 72 h; for IC50: read-out: Cell Proliferation Inhibition in A549 (Lung carcinoma), IC50; for inhibition at 10 µg/mL: read-out: Cell Proliferation Inhibition in A549 (Lung carcinoma), % at highest screening dose.
Experimental: (§1) MTT [3-(4,5-dimethylthiazol-2-yl)-2,5-diphenyltetrazolium bromide] incorporation based cell proliferation assay was performed using standard procedure. […] The assay was carried out according to the instructions provided by the vendor. […] Vehicle control culture wells received only a maximum of 0.5% DMSO. Thereafter, 0.5 mg/ml of MTT reagent was added to each well and the microplate was incubated further for 4 h at 37° C. in presence of 5% CO2. Finally, the cells were solubilized by adding solubilizing solution and allowed to incubate at 37° C. overnight. After complete solubilization of the formazan crystals the absorbance was read at 540 nm in a microplate reader (BioRad, USA).
(§2) The evaluation of cell proliferation inhibitory activities of the compounds was done in two phases—(1) Screening, and (2) half-maximal inhibitory concentration (IC50) determination. In the screening phase, the cells were treated with three different concentrations e.g. 1, 5 and 10 μg/ml.
In assay [2] the test system is human prostate DU145 cells. In words: MTT based cell proliferation assay, DU145. The conditions noted are these: for IC50 / inhibition at 10 µg/mL: Homo sapiens, DU-145, 72 h; for IC50: read-out: Cell Proliferation Inhibition in DU145 (Prostate carcinoma), IC50; for inhibition at 10 µg/mL: read-out: Cell Proliferation Inhibition in DU145 (Prostate carcinoma), % at highest screening dose.
Experimental: as §1, §2

In assay [3] the test system is human colorectal carcinoma HT29 cells. In words: MTT based cell proliferation assay, HT29. The conditions noted are these: for IC50 / inhibition at 10 µg/mL: Homo sapiens, HT-29, 72 h; for IC50: read-out: Cell Proliferation Inhibition in HT29 (Colon carcinoma), IC50; for inhibition at 10 µg/mL: read-out: Cell Proliferation Inhibition in HT29 (Colon carcinoma), % at highest screening dose.
Experimental: as §1, §2

For `COc1cc2c(Nc3cc(C(C)(C)C)[se]c3C(N)=O)ncnc2c(OC)c1OC` [Compound 2, 3-(6,7,8-trimethoxyquinazolin-4-ylamino)-5-tert-butylselenophene-2-carboxamide], the values for the IC50 in assay [1], in assay [2] and in assay [3] were 31.1 µM, 5.98 µM and 19.3 µM, respectively.
The corresponding values for `COc1cc2ncnc(Nc3cc(C(C)(C)C)[se]c3C(N)=O)c2cc1OCCCN1CCOCC1` [Compound 3, 3-(6-(3-morpholinopropoxy)-7-methoxyquinazolin-4-ylamino)-5-tert-butylselenophene-2-carboxamide] are 6.71 µM, 7.39 µM and 5.12 µM.
Consider `COc1cc2ncnc(Nc3cc(C(C)(C)C)[se]c3[N+](=O)[O-])c2cc1OCCCN1CCOCC1` [Compound 4, [5-(tert-butyl)-2-nitroselenophen-3-yl][7-methoxy-6-(3-morpholino-propoxy)quinazolin-4-yl]amine], for which the inhibition at 10 µg/mL in assay [1] is 10.4%; in assay [2] it was 9.85%. Besides, the IC50 in assay [3] turned out to be 19.3 µM.
`COc1cc2c(Nc3cc(C(C)(C)C)[se]c3C(N)=O)ncnc2cc1OCCCN1CCOCC1` [Compound 5, 3-(7-(3-morpholinopropoxy)-6-methoxyquinazolin-4-ylamino)-5-tert-butylselenophene-2-carboxamide]: the values for the IC50 in assay [1], in assay [2] and in assay [3] were 4.6 µM, 3.9 µM and 4.07 µM, respectively. In addition, the “potency in vitro compared to gefitinib (Iressa), A549” value in assay [1] (ratio of IC50 values) is “approximately four times”. Also, the “potency in vitro compared to gefitinib (Iressa), DU145” value in assay [2] (ratio of IC50 values) was “several times better potency”. Also, in assay [3] (ratio of IC50 values), the “potency in vitro compared to gefitinib (Iressa), HT29” value was “several times better potency”.
As to `COCCOc1cc2ncnc(Nc3cc(C(C)(C)C)[se]c3C(N)=O)c2cc1OCCOC` [Compound 6, 3-(6,7-bis(2-methoxyethoxy)quinazolin-4-ylamino)-5-tert-butylselenophene-2-carboxamide], the inhibition at 10 µg/mL was 5.09% in assay [1], 39.7% in assay [2] and 86.4% in assay [3].
Consider `COc1cc2ncnc(Nc3cc(-c4ccccc4)[se]c3C(N)=O)c2cc1OCCCN1CCOCC1` [Compound 7, 3-(6-(3-morpholinopropoxy)-7-methoxyquinazolin-4-ylamino)-5-phenyl-selenophene-2-carboxamide], for which the IC50 in assay [1] stood at 6.08 µM; in assay [2] it was 5.84 µM. Further, the inhibition at 10 µg/mL in assay [3] stood at 85.8%.
For `CC(C)(C)c1cc(Nc2ncnc3ccc(N)cc23)c(C(N)=O)[se]1` [Compound 8, 3-(6-aminoquinazolin-4-ylamino)-5-tert-butylselenophene-2-carboxamide], the inhibition at 10 µg/mL in assay [1] was 7.6%; in assay [2], 15.7%; in assay [3] it was 81.9%.
Consider `CC(C)(C)c1cc(Nc2ncnc3ccc(NC(=O)CCl)cc23)c(C(N)=O)[se]1` [Compound 9, 3-(6-(2-chloroacetamido)quinazolin-4-ylamino)-5-tert-butylselenophene-2-carboxamide], for which, in assay [1], the inhibition at 10 µg/mL was 0.19%. Further, the IC50 was found to be 8.51 µM in assay [2] and 9.24 µM in assay [3].
As to `COC(=O)c1cc(Nc2ncnc3cc(OC)c(OCCCN4CCOCC4)cc23)c(C)[se]1` [Compound 10, methyl 4-(6-(3-morpholinopropoxy)-7-methoxyquinazolin-4-ylamino)-5-methylselenophene-2-carboxylate], the inhibition at 10 µg/mL in assay [1] is 10.3%; in assay [2], 21.4%; in assay [3] it was 6.11%.
The corresponding values for `COc1cc2ncnc(Nc3cc(C(N)=O)[se]c3C)c2cc1OCCCN1CCOCC1` [Compound 11, 4-(6-(3-morpholinopropoxy)-7-methoxyquinazolin-4-ylamino)-5-methylselenophene-2-carboxamide] are 16%, 5.15% and 7.41%.

The values are drawn from patent US8815879B2, “Substituted 4-(selenophen-2(or-3)-ylamino)pyrimidine compounds and methods of use thereof” (Kasina Laila Innova Pharmaceuticals Private Limited, priority 2010, dated 2014).
